Assay results taken from article doi:10.1101/2025.04.10.648262, “Time-resolved phenotyping at subcellular resolution reveals shared principles and key trade-offs across antimicrobial peptide activities” (bioRxiv, 2026).
Read-outs that look alike come from different tables or passages of the source. Square brackets hold non-standard residues; d marks the D form. Ends that are not written are not given here. Peptide text beside a SMILES is read from it. * marks the point of attachment. 5TAMRA = CN(C)c1ccc2c(c1)Oc1cc(N(C)C)ccc1C21OC(=O)c2cc(C(=O)*)ccc21

System: E. coli (MG1655)
Format: cell-based, Escherichia coli
Experimental: For all experiments and E. coli strains, cells were grown in a medium (M9gluCAAT) with M9 salts (33.7 mM Na2HPO4, 22mM KH2PO4, 8.55 mM NaCl, 9.35 mM NH4Cl), 0.2% (w/v) glucose, 0.4% (w/v) casamino acids, 1 mM MgSO4, 0.3 mM CaCl2, 1 μg/mL thiamine, and trace elements (13.4 mM ethylene-diamine-tetra-acetic-acid (EDTA), 3.1 mM FeCl3-6H2O, 0.62 mM ZnCl2, 76 μM CuCl2-2H2O, 42 μM CoCl2-2H2O, 162 μM H3BO3, 8.1 μM MnCl2-4H2O). Prior to every experiment, cells were first inoculated into M9gluCAAT and grown to stationary phase at 37°C. For all assays except the biofilm experiments, the culture was diluted to 1/10,000 or more in fresh medium and grown at 37°C until it reached an optical density at 600 nm (OD) of 0.2–0.4. For the biofilm experiments, cells were grown in M9gluCAAT supplemented with 100 μg/mL ampicillin to maintain the GFP-expressing plasmid. The overnight stationary-phase cultures were then diluted into the same medium to an OD of 0.015. See below for details on biofilm growth.
Except for the biofilm experiments, the strains used in this study were derived from MG1655 (ATCC 47076), which was used to estimate the minimum inhibitory concentration (MIC) for all the studied peptides (or peptoids) using a microplate reader (Figure 1A). To detect the timing of outer and inner membrane permeabilization to proteins, strain CJW7845 was constructed to carry two freely diffusing fluorescent proteins: mScarlet-I in the periplasm and mTagBFP2 in the cytoplasm. Construction of CJW7845 was done by transforming pBAD-mTagBFP2 plasmid (Addgene #34632, a gift from Vladislav Verkhusha; ([Subach et al., 2011])) into an E. coli strain expressing a periplasmic mScarlet-I reporter ([Cañas-Duarte 2021]), as previously described ([Chung et al., 1989]). Transformants were restreaked on fresh selection plates and confirmed via microscopy.
To determine the minimal inhibitory concentration (MIC) of the selected AMPs against either MG1655 or ATCC 25922 E. coli strains, exponentially growing cells were diluted in fresh medium to an OD = 10^−6 (~500 cells/mL) and mixed 50:50 with titrated AMP concentrations (which were chosen to be over a range that included the MIC) in a 96-well plate (flat bottom with low evaporation lid, 3595, Corning, Arizona, USA). A final OD of 5 × 10^−7 corresponds to ~250 cells/mL. OD curves were sampled every 5 min for a total of 48 h using a microplate reader (BioTek Synergy 2, Agilent Technologies Inc., California, USA). Raw data were exported as a text file and analysed using a custom-written Python script (microplate_reader_analysis.py). To measure maximum growth rates, the log(OD) was fitted using a linear regression over a 12-point moving window (60 min), which provides the instantaneous growth rate (log(OD)/h), from which the global maximum was computed. The MIC was defined as the minimum AMP concentration for which the maximum growth rate was < 0.2 log(OD)/h within the first 20 h of incubation. Each MIC experiment was performed independently at least three times (with at least two technical replicates each), and the mode across all replicates was taken as the final MIC; in the rare cases of a tie, an additional replicate was performed, which was sufficient to resolve it.

[1] = E. coli MG1655, M9gluCAAT, 37°C, 20 h, inoculum ~250 cells/mL, mode across three biological replicates

CC[C@H](C)[C@H](NC(=O)CNC(=O)[C@H](CC(=O)O)NC(=O)[C@H](CCCNC(=N)N)NC(=O)[C@@H](NC(=O)[C@H](CC(N)=O)NC(=O)[C@H](CCC(N)=O)NC(=O)CNC(=O)[C@@H](NC(=O)[C@H](CCCCN)NC(=O)[C@H](CCC(=O)O)NC(=O)[C@@H](NC(=O)[C@H](CCCCN)NC(=O)[C@H](CCCCN)NC(=O)[C@H](Cc1ccccc1)NC(=O)[C@H](CC(C)C)NC(=O)[C@H](CCCCN)NC(=O)[C@H](Cc1c[nH]c2ccccc12)NC(=O)[C@H](CCCCN)NC(=O)c1ccc2c(c1)C(=O)OC21c2ccc(N(C)C)cc2Oc2cc(N(C)C)ccc21)[C@@H](C)CC)C(C)C)[C@@H](C)CC)C(=O)N[C@H](C(=O)N[C@@H](CCCCN)C(=O)N[C@@H](C)C(=O)NCC(=O)N1CCC[C@H]1C(=O)N[C@@H](C)C(=O)N[C@H](C(=O)N[C@@H](C)C(=O)N[C@H](C(=O)N[C@H](C(=O)NCC(=O)N[C@@H](CCC(N)=O)C(=O)N[C@@H](C)C(=O)N[C@H](C(=O)N[C@@H](CCC(N)=O)C(=O)N[C@H](C(=O)N[C@@H](C)C(=O)N[C@@H](CCCCN)C(N)=O)[C@@H](C)CC)[C@@H](C)O)C(C)C)C(C)C)C(C)C)[C@@H](C)CC [5-TAMRA-CecA] (5TAMRA-KWKLFKKIEKVGQNIRDGIIKAGPAVAVVGQATQIAK-NH2; C-terminus assumed)
MIC (mode MIC) of 5-TAMRA-labeled AMP derivatives (MG1655, 20 h): 2 µM

CC[C@H](C)[C@H](NC(=O)[C@H](CCCNC(=N)N)NC(=O)[C@@H]1CCCN1C(=O)[C@@H]1CCCN1C(=O)[C@H](CC(C)C)NC(=O)[C@H](CCCNC(=N)N)NC(=O)[C@@H]1CCCN1C(=O)[C@@H]1CCCN1C(=O)[C@H](Cc1ccccc1)NC(=O)[C@H](Cc1ccccc1)NC(=O)[C@@H]1CCCN1C(=O)[C@@H]1CCCN1C(=O)[C@@H]1CCCN1C(=O)[C@H](CCCNC(=N)N)NC(=O)[C@@H]1CCCN1C(=O)[C@H](CCCNC(=N)N)NC(=O)[C@@H]1CCCN1C(=O)[C@H](CC(C)C)NC(=O)[C@H](Cc1ccc(O)cc1)NC(=O)[C@@H]1CCCN1C(=O)[C@@H]1CCCN1C(=O)[C@H](CCCNC(=N)N)NC(=O)[C@@H]1CCCN1C(=O)[C@H](CCCNC(=N)N)NC(=O)[C@H](CCCNC(=N)N)NC(=O)[C@H](CCCNC(=N)N)NC(=O)c1ccc2c(c1)C(=O)OC21c2ccc(N(C)C)cc2Oc2cc(N(C)C)ccc21)C(=O)N1CCC[C@H]1C(=O)N1CCC[C@H]1C(=O)NCC(=O)N[C@@H](Cc1ccccc1)C(=O)N1CCC[C@H]1C(=O)N1CCC[C@H]1C(=O)N[C@@H](CCCNC(=N)N)C(=O)N[C@@H](Cc1ccccc1)C(=O)N1CCC[C@H]1C(=O)N1CCC[C@H]1C(=O)N[C@@H](CCCNC(=N)N)C(=O)N[C@@H](Cc1ccccc1)C(=O)N1CCC[C@H]1C(N)=O [5-TAMRA-PR-39] (5TAMRA-RRRPRPPYLPRPRPPPFFPPRLPPRIPPGFPPRFPPRFP-NH2; C-terminus assumed)
MIC (mode MIC) of 5-TAMRA-labeled AMP derivatives (MG1655, 20 h): 2 µM

RRIPFWPPNWPGPWLPPWSPPDFRIPRILRKR [Tur1B]
MIC (mode MIC) (MG1655, 20 h): 8 µM

CC[C@H](C)[C@H](NC(=O)[C@H](CCCCN)NC(=O)[C@H](CCC(=O)O)NC(=O)[C@H](CCCCN)NC(=O)[C@H](CO)NC(=O)[C@H](CCCCN)NC(=O)[C@H](CCCNC(=N)N)NC(=O)[C@H](Cc1ccccc1)NC(=O)[C@H](Cc1ccccc1)NC(=O)[C@H](CC(=O)O)NC(=O)CNC(=O)[C@H](CC(C)C)NC(=O)[C@H](CC(C)C)NC(=O)c1ccc2c(c1)C(=O)OC21c2ccc(N(C)C)cc2Oc2cc(N(C)C)ccc21)C(=O)NCC(=O)N[C@@H](CCCCN)C(=O)N[C@@H](CCC(=O)O)C(=O)N[C@@H](Cc1ccccc1)C(=O)N[C@@H](CCCCN)C(=O)N[C@@H](CCCNC(=N)N)C(=O)N[C@H](C(=O)N[C@H](C(=O)N[C@@H](CCC(N)=O)C(=O)N[C@@H](CCCNC(=N)N)C(=O)N[C@H](C(=O)N[C@@H](CCCCN)C(=O)N[C@@H](CC(=O)O)C(=O)N[C@@H](Cc1ccccc1)C(=O)N[C@@H](CC(C)C)C(=O)N[C@@H](CCCNC(=N)N)C(=O)N[C@@H](CC(N)=O)C(=O)N[C@@H](CC(C)C)C(=O)N[C@H](C(=O)N1CCC[C@H]1C(=O)N[C@@H](CCCNC(=N)N)C(=O)N[C@H](C(=O)N[C@@H](CCC(=O)O)C(=O)N[C@@H](CO)C(=O)O)[C@@H](C)O)C(C)C)[C@@H](C)CC)C(C)C)[C@@H](C)CC [5-TAMRA-LL-37]
MIC (mode MIC) of 5-TAMRA-labeled AMP derivatives [1]: 2 µM

CN[C@@H]1[C@H](O)[C@H](NC)[C@H]2O[C@@]3(O)C(=O)C[C@@H](C)O[C@H]3O[C@@H]2[C@H]1O [Spect, spectinomycin]
MIC (mode MIC), antibiotics [1]: 64 µg/mL

CC[C@@H](C)[C@@H](NC(=O)[C@@H](C)NC(=O)[C@@H](CCCNC(=N)N)NC(=O)[C@@H](Cc1c[nH]c2ccccc12)NC(=O)[C@@H](CCC(N)=O)NC(=O)[C@H](NC(=O)c1ccc2c(c1)C(=O)OC21c2ccc(N(C)C)cc2Oc2cc(N(C)C)ccc21)C(C)C)C(=O)N[C@H](CCCNC(=N)N)C(=O)N[C@@H](C(=O)N[C@H](CCCNC(=N)N)C(=O)N[C@@H](C(=O)N[C@@H](C(=O)N[C@H](CCCNC(=N)N)C(N)=O)[C@H](C)CC)C(C)C)C(C)C [5-TAMRA-DJK-5] (5TAMRA-[dV][dQ][dW][dR][dA][dI][dR][dV][dR][dV][dI][dR]-NH2; C-terminus assumed)
MIC (mode MIC) of 5-TAMRA-labeled AMP derivatives (MG1655, 20 h): 2.5 µM

CO[C@H]1/C=C/O[C@@]2(C)Oc3c(C)c(O)c4c(O)c(c(/C=N/N5CCN(C)CC5)c(O)c4c3C2=O)NC(=O)/C(C)=C\C=C\[C@H](C)[C@H](O)[C@@H](C)[C@@H](O)[C@@H](C)[C@H](OC(C)=O)[C@@H]1C [Rif, rifampicin]
MIC (mode MIC), antibiotics [1]: 16 µg/mL

CC[C@H](C)[C@H](NC(=O)[C@H](CCCNC(=N)N)NC(=O)[C@H](CCCNC(=N)N)NC(=O)c1ccc2c(c1)C(=O)OC21c2ccc(N(C)C)cc2Oc2cc(N(C)C)ccc21)C(=O)N[C@@H](CCCNC(=N)N)C(=O)N1CCC[C@H]1C(=O)N[C@@H](CCCNC(=N)N)C(=O)N1CCC[C@H]1C(=O)N1CCC[C@H]1C(=O)N[C@@H](CCCNC(=N)N)C(=O)N[C@@H](CC(C)C)C(=O)N1CCC[C@H]1C(=O)N[C@@H](CCCNC(=N)N)C(=O)N1CCC[C@H]1C(=O)N[C@@H](CCCNC(=N)N)C(=O)N1CCC[C@H]1C(=O)N[C@@H](CCCNC(=N)N)C(=O)N1CCC[C@H]1C(=O)N[C@@H](CC(C)C)C(=O)N1CCC[C@H]1C(=O)N[C@@H](Cc1ccccc1)C(=O)N1CCC[C@H]1C(=O)N[C@@H](CCCNC(=N)N)C(=O)N1CCC[C@H]1C(=O)NCC(=O)N1CCC[C@H]1C(=O)N[C@@H](CCCNC(=N)N)C(=O)N1CCC[C@H]1C(=O)N[C@H](C(=O)N1CCC[C@H]1C(=O)N[C@@H](CCCNC(=N)N)C(=O)N1CCC[C@H]1C(=O)N[C@@H](CC(C)C)C(=O)N1CCC[C@H]1C(=O)N[C@@H](Cc1ccccc1)C(=O)N1CCC[C@H]1C(=O)O)[C@@H](C)CC [5-TAMRA-Bac7] (5TAMRA-RRIRPRPPRLPRPRPRPLPFPRPGPRPIPRPLPFP-OH; C-terminus assumed)
MIC (mode MIC) of 5-TAMRA-labeled AMP derivatives (MG1655, 20 h): 0.6 µM

RSIRRPRLPRPRVPRPYIPPRIPRPVLPPPRFPIPRFPRGR [CamBac, camel bactenecin]
MIC (mode MIC) (MG1655, 20 h): 0.5 µM

GLLRKGGEKIGEKLKKIGQKIKNFFQKLVPQPEQ [CRAMP]
MIC (mode MIC) (E. coli MG1655, M9gluCAAT, 37°C, 20 h, inoculum ~250 cells/mL, max growth rate < 0.2 log(OD)/h, mode across three biological replicates with two technical replicates each): 4 µM

GIGKFLHSAKKFGKAFVGEIMNS [Mag2, magainin-2]
MIC (mode MIC) (MG1655, 20 h): 40 µM
